# “And” between values parts separate entries of the source, which are not always exact repeats. Equal entries are not always repeated.
# Columns and labels:
# [1] = tested on: subjects with T2DM and renal impairment; experiment: Phase 2a: total daily insulin dose adjustment; assay type: in vivo, human
# Protocol: The effect of Cotadutide on insulin dose adjustment was evaluated for subjects on ≥20 U/day insulin. […] The mean percent reduction in total daily insulin dose from baseline until the end of dosing was statistically significant compared to placebo, especially in the HbA1c<8.0% subgroup (Table 15).
# [2] = tested on: subjects with T2DM and renal impairment; experiment: Phase 2a: HbA1c blood test; assay type: in vivo, human; settings: ITT; for HbA1c LS Mean Change / HbA1c Change from Baseline, Mean / HbA1c Difference in LS Mean Change (vs Placebo): Day 1 to Day 32; for HbA1c LS Mean Change: ANCOVA
# Protocol: (§1) Cotadutide was titrated from 50 μg up to 300 μg and administered once daily by subcutaneous (SC) injection over 32 days.
# (§2) Cotadutide was administered at 50 μg once daily for 4 days, followed by 100 μg daily for 7 days, 200 μg daily for 7 days, and 300 μg daily for 14 days (n=20). Placebo was administered one daily for 32 days (n=20). Cotadutide and placebo were administered in the morning. Dosing commenced following predose baseline vital signs, blood tests (including HbA1c), an electrocardiogram (ECG), body weight measurement, and bioimpedance spectroscopy (BIS). Subjects then returned for daily dosing or remained overnight locally until Day 5, and thereafter, had visits at weekly intervals until a maintenance dose of 300 μg was established. Thus, Cotadutide or placebo was administered at the study site by study personal for the first four doses and on site on Days 5, 12, 19, and 32. At all other times, subjects preformed dosing at home.
# (§3) Blood samples were collected to evaluate blood glucose (fasting) and HbA1c levels.
# [3] = tested on: subjects with T2DM and renal impairment; experiment: Phase 2a: fasting glucose blood test; assay type: in vivo, human; settings: ITT; for Fasting Glucose LS Mean Change / Fasting Glucose Change from Baseline, Mean / Fasting Glucose Change from Baseline, Median / Fasting Glucose Difference in LS Mean Change (vs Placebo): Day 1 to Day 32; for Fasting Glucose LS Mean Change: ANCOVA
# Protocol: as §1, §2, §3
# Fasting glucose was measured from baseline (Day 1) to the end of treatment (Day 32). […] LS mean reduction of fasting glucose from baseline was more apparent in subjects in the Insulin Dose <20 U/day subgroup compared to Insulin Dose ≥20 U/day subgroup.
# [4] = tested on: subjects with T2DM and renal impairment; experiment: Phase 2a: bioimpedance spectroscopy (fluid status); assay type: in vivo, human; settings: baseline (Day 1) to end of dosing
# Protocol: Assessment of body composition, including but not limited to extracellular and intracellular volume and total body water, were conducted with bioimpedance spectroscopy using the SFB7 device produced by ImpediMed. Bioimpedance spectroscopy measures were not conducted in any subject with a pacemaker or implantable electronic device, e.g., an implantable cardiac defibrillator, as described in the manufacturer's instructions.
# Bioimpedance spectroscopy was performed prior to dosing on Visit 4 (Day 1; Baseline) and following dosing on Visits 6 (Day 5), 7 (Day 12), 8 (Day 19), and 9 (Day 32). Subjects were to void their bladder and abstain from exercising 2 hours prior to the assessment. The subjects laid in a supine position 5 minutes before the measurement, while not touching any metal surfaces. The subjects' limbs were not crossed, the legs were completely separated, and the arms were not to touch the torso. For subjects who could not effectively separate their inner thighs, insulating material (e.g., a towel) may have been between the legs. The bioimpedance spectroscopy was set to make three repeat measurements. The subject was to remain still and relaxed during the measurement. The points of contact for the electrodes were marked on the subject's skin and the same positions used at all occasions. […]
# [5] = tested on: patients with T2DM and chronic kidney disease (CKD) stage G3; experiment: Phase 2a: C-peptide levels; assay type: in vivo, human; settings: over 32 days; P<0.001
# Protocol: Over 32 days, 21 patients received once-daily subcutaneous cotadutide (n=21) titrated up to 300 μg, and 20 patients received placebo (PBO). […] Serious adverse events (AEs) were balanced between treatment arms; treatment-related AEs were more frequent with cotadutide (71%) vs PBO (35%). The most common AEs were nausea (cotadutide, 33%; PBO, 20%) and vomiting (cotadutide, 24%; PBO, 5%). […] Thus, in patients with T2DM and chronic kidney disease, cotadutide improved overall glycemic control and glucose responses to an MMTT with acceptable tolerability. Improvements in albuminuria indicate that cotadutide can slow long-term progression of CKD.
# brown adipose tissue = experiment: [^18F]FDG uptake by PET imaging (separate study); assay type: in vivo, mice
# Source text: Finally, glucose uptake was elevated in brown adipose tissue in Cotadutide treated mice, which was confirmed in a separate study of [^18F]FDG uptake by PET imaging.
structure (smiles),measurement,setting,value
CCCCCCCCCCCCCCCC(=O)N[C@@H](CCC(=O)NCCCC[C@H](NC(=O)[C@H](CC(=O)O)NC(=O)[C@H](CO)NC(=O)[C@@H](NC(=O)[C@H](Cc1ccccc1)NC(=O)[C@@H](NC(=O)CNC(=O)[C@H](CCC(N)=O)NC(=O)[C@H](CO)NC(=O)[C@@H](N)Cc1c[nH]cn1)[C@@H](C)O)[C@@H](C)O)C(=O)N[C@@H](CO)C(=O)N[C@@H](CCC(=O)O)C(=O)N[C@@H](Cc1ccc(O)cc1)C(=O)N[C@@H](CC(C)C)C(=O)N[C@@H](CC(=O)O)C(=O)N[C@@H](CO)C(=O)N[C@@H](CCC(=O)O)C(=O)N[C@@H](CCCNC(=N)N)C(=O)N[C@@H](C)C(=O)N[C@@H](CCCNC(=N)N)C(=O)N[C@@H](CC(=O)O)C(=O)N[C@@H](Cc1ccccc1)C(=O)N[C@H](C(=O)N[C@@H](C)C(=O)N[C@@H](Cc1c[nH]c2ccccc12)C(=O)N[C@@H](CC(C)C)C(=O)N[C@@H](CCC(=O)O)C(=O)N[C@@H](C)C(=O)NCC(=O)NCC(=O)O)C(C)C)C(=O)O [Cotadutide],reduction in insulin dose,"[1]; over 32 days, P=0.012",35.2%
same,percentage reduction from baseline in total daily insulin dose at the end of treatment,"[1]; participants with insulin dose of at least 20 U/day, Day −2 to end of treatment",−35.2%
same,HbA1c LS Mean Change,[2]; Insulin Dose < 20 U/day,−0.66%
same,HbA1c LS Mean Change,[2]; Insulin Dose ≥ 20 U/day,−0.57%
same,HbA1c LS Mean Change,[2]; Total,−0.65% and −0.7%
same,HbA1c LS Mean Change,"[2]; Total, listed as MEDI0382",−0.65%
same,"HbA1c Change from Baseline, Mean",[2]; Insulin Dose < 20 U/day,−0.829%
same,HbA1c Difference in LS Mean Change (vs Placebo),[2]; Insulin Dose < 20 U/day,−0.59%
same,HbA1c Difference in LS Mean Change (vs Placebo),[2]; Insulin Dose ≥ 20 U/day,−0.55%
same,"HbA1c Change from Baseline, Mean",[2]; Total,−0.653%
same,HbA1c Difference in LS Mean Change (vs Placebo),[2]; Total,−0.66%
same,"Hemoglobin A1C, Day 32, Mean",[2]; Insulin Dose < 20 U/day,6.943%
same,"Hemoglobin A1C, Day 32, Median",[2]; Insulin Dose < 20 U/day,6.900%
same,"Hemoglobin A1C, Day 32, Mean",[2]; Insulin Dose ≥ 20 U/day,7.392%
same,"Hemoglobin A1C, Day 32, Median",[2]; Insulin Dose ≥ 20 U/day,7.300%
same,"Hemoglobin A1C, Day 32, Mean",[2]; Total,7.226%
same,"Hemoglobin A1C, Day 32, Median",[2]; Total,7.200%
same,Fasting Glucose LS Mean Change,[3]; Insulin Dose < 20 U/day,-32.24 mg/dL
same,Fasting Glucose LS Mean Change,[3]; Insulin Dose ≥ 20 U/day,-12.28 mg/dL
same,Fasting Glucose LS Mean Change,[3]; Total,-19.55 mg/dL
same,"Fasting Glucose Change from Baseline, Mean",[3]; Insulin Dose < 20 U/day,-31.79 mg/dL
same,"Fasting Glucose Change from Baseline, Median",[3]; Insulin Dose < 20 U/day,-39.64 mg/dL
same,Fasting Glucose Difference in LS Mean Change (vs Placebo),[3]; Insulin Dose < 20 U/day,-28.11 mg/dL
same,"Fasting Glucose Change from Baseline, Mean",[3]; Insulin Dose ≥ 20 U/day,-9.39 mg/dL
same,"Fasting Glucose Change from Baseline, Median",[3]; Insulin Dose ≥ 20 U/day,-9.01 mg/dL
same,Fasting Glucose Difference in LS Mean Change (vs Placebo),[3]; Insulin Dose ≥ 20 U/day,-15.02 mg/dL
same,"Fasting Glucose Change from Baseline, Mean",[3]; Total,-17.64 mg/dL
same,"Fasting Glucose Change from Baseline, Median",[3]; Total,-19.82 mg/dL
same,Fasting Glucose Difference in LS Mean Change (vs Placebo),[3]; Total,-20.15 mg/dL
same,"Fasting Glucose, Day 32, Mean",[3]; Insulin Dose < 20 U/day,125.75 mg/dL
same,"Fasting Glucose, Day 32, Median",[3]; Insulin Dose < 20 U/day,125.24 mg/dL
same,"Fasting Glucose, Day 32, Mean",[3]; Insulin Dose ≥ 20 U/day,159.03 mg/dL
same,"Fasting Glucose, Day 32, Median",[3]; Insulin Dose ≥ 20 U/day,141.91 mg/dL
same,"Fasting Glucose, Day 32, Mean",[3]; Total,146.77 mg/dL
same,"Fasting Glucose, Day 32, Median",[3]; Total,139.66 mg/dL
same,"changes in total body water volume, intracellular fluid volume, or extracellular fluid volume vs placebo",[4],no clinically meaningful differences
same,"C-peptide levels, LS mean change vs PBO",[5],0.88 µg/L
same,"[^18F]FDG uptake by PET imaging, brown adipose tissue",brown adipose tissue,confirmed

# From patent publication US20210213104A1, “GLUCAGON AND GLP-1 CO-AGONISTS FOR THE TREATMENT OF CHRONIC KIDNEY DISEASE AND DIABETIC KIDNEY DISEASE IN TYPE 2 DIABETES” (MEDIMMUNE LIMITED, priority 2020, published 2021)
